Experimental findings from ChEMBL document CHEMBL5104158, “Synthesis and human monoamine oxidase inhibitory activity of novel C2-, C3- and C4-substituted phthalonitriles” (Bioorg Med Chem Lett, 2022) are described below.

SMILES strings stand for the structures.

Data set [1] has as its target T1, Amine oxidase [flavin-containing] B (Homo sapiens, UniProt P27338).
T1 sequence (P27338 whole entry): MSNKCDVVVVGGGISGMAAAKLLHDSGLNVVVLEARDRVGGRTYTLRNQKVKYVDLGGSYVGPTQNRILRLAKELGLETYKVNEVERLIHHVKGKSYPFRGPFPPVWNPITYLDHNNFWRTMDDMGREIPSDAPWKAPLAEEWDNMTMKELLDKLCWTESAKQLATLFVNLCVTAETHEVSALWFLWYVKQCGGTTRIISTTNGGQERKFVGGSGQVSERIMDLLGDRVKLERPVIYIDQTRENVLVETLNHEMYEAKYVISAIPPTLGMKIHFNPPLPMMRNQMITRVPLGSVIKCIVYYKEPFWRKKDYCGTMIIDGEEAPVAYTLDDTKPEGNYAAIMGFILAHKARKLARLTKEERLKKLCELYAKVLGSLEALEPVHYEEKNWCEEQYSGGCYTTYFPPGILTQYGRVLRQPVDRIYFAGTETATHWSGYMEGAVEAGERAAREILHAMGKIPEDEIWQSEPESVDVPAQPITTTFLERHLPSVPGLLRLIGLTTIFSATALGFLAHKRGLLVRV
Nature of the data set: Inhibition of human MAO-B assessed as inhibition of H2O2 production using p-tyramine as substrate.

Data set [2] addresses T2, Amine oxidase [flavin-containing] A (Homo sapiens, UniProt P21397).
T2 sequence (P21397 whole entry): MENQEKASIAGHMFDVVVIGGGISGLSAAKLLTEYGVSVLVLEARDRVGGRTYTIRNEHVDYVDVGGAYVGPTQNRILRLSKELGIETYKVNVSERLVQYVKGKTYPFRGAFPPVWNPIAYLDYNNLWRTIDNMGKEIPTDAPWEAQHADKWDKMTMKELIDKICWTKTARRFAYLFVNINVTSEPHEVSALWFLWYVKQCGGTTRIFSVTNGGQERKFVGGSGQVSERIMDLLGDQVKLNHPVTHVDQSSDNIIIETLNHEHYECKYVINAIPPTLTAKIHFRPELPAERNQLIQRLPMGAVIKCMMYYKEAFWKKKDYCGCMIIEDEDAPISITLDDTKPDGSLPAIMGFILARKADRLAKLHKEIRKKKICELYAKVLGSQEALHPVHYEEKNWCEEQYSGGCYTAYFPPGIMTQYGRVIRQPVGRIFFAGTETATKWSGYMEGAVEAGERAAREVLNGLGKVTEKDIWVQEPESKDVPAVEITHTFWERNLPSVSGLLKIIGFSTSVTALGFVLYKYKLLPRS
Put plainly: Inhibition of human MAO-A assessed as inhibition of H2O2 production using p-tyramine as substrate.

The species entered for the next data set is Homo sapiens. Put plainly: Selectivity index, ratio of IC50 for inhibition of human MAO-A to IC50 for inhibition of human MAO-B.
Data set [3] has as its target T1, Amine oxidase [flavin-containing] B. Put plainly: Inhibition of human MAO-B assessed as enzyme residual activity using p-tyramine as substrate.
The target is the same in data set [4]. Nature of the data set: Reversible inhibition of human MAO-B assessed as enzyme residual activity using p-tyramine as substrate measured after dialysis by dialysis method.
Data set [5] has the same target. Put plainly: Mixed competitive inhibition of human MAO-B using p-tyramine as substrate by Lineweaver-Burk plot analysis.
The target in data set [6] is T2, Amine oxidase [flavin-containing] A. Nature of the data set: Inhibition of human MAO-A assessed as inhibition of H2O2 production using p-tyramine as substrate at 100 uM.

The IC50 is the midpoint of a concentration-inhibition curve. Consider `N#Cc1ccc(/N=N/c2ccc(O)c(-c3ccccc3)c2)cc1C#N`, for which the IC50 in data set [1] worked out at 1120 nM; in data set [2], 780 nM. Moreover, the Ratio IC50 in the data set listed under Homo sapiens was found to be 0.69.
`COc1cc(S)c(/N=N/c2cccc(C#N)c2C#N)cc1OC`: the values for the IC50 in data set [1] and in data set [2] were 80300 nM and 17800 nM, respectively. Moreover, the Ratio IC50 in the data set listed under Homo sapiens was determined as 0.22.
Usually Ki stands for a measure of affinity in units of concentration, obtained from inhibition or displacement. Higher therefore signals a looser hold on the target. For `COc1cc(S)c(/N=N/c2ccc(C#N)c(C#N)c2)cc1OC`, the Activity was 34.8% in data set [3] and 83.3% in data set [4]. For the same compound, the IC50 in data set [1] is 740 nM; in data set [2] it was 55600 nM. Moreover, in data set [5], the Ki worked out at 77.5 nM. In addition, the Ratio IC50 in the data set listed under Homo sapiens is 75.2.
A word on the inhibition: it is the percentage by which the read-out fell short of the control. For the compound `CC(=O)Oc1ccc(-c2ccccc2)cc1/N=N/c1ccc(C#N)c(C#N)c1`, the IC50 in data set [1] is 3820 nM. Moreover, the Ratio IC50 in the data set listed under Homo sapiens is more than 26.2. For the same compound, the inhibition at 100 µM in data set [6] amounted to 27%.
Take `N#Cc1ccc(/N=N/c2cc(-c3ccccc3)ccc2O)cc1C#N`: the values for the IC50 in data set [1] and in data set [2] were 700 nM and 29400 nM, respectively. Moreover, in the data set filed under Homo sapiens, the Ratio IC50 turned out to be 42.
As for `COc1ccc(/N=N/c2ccc(C#N)c(C#N)c2)cc1-c1ccccc1`, the IC50 in data set [1] was determined as 1440 nM; in data set [2] it was 890 nM. Further, the Ratio IC50 in the data set filed under Homo sapiens is 0.62.
